What was measured:
Format in all cases: cell-based
[1] = biological target: T1, hSERT T497A (S2 site mutant) (Homo sapiens, UniProt P31645, T497A); experiment: APP+ transport in HeLa cells expressing hSERT mutant T497A; conditions: 2 μM APP+ 5 min, intact HeLa cells, read-out: SAG IC50 for transport
T1 construct: expressed in transfected cells; host or cells: HeLa (ATCC CCL-2), transient, pcDNA3.1
Description: (§1) The mutants used for this study were constructed in the WT background carried by the expression plasmids for hSERT, hDAT, or hNET under the control of CMV promotor in pcDNA3.1 vector, respectively. All mutants were generated using the Mut Express II Fast Mutagenesis Kit (Vazyme) and confirmed by full-length DNA sequencing.
(§2) HeLa cells were cultured in Dulbecco’s Modified Eagle’s Medium supplemented with 10% fetal bovine serum, 100 units/ml penicillin, and 100 μg/ml streptomycin at 37°C in a humidified 5% CO2 incubator. Cells were plated in a 6-well culture plate and grown overnight. Cells at ∼70% confluence were transfected with hSERT, hDAT, or hNET cDNA in pcDNA3.1 by lipofectamine 2000. […] After grown for additional 12–16 h, the cells were assayed for APP^+ or ASP^+ fluorescence image acquisition.
(§3) The cells expressing WT or mutants of hSERT, hDAT, or hNET were wet mounted on polylysine coated glass slides in 12-well plates and applied for the indicated treatments. […] The extent of APP^+ accumulated in the cells was determined by confocal imaging analysis. ASP^+ binding to SERT in the cell membrane was measured with digitonin-permeabilized cells ([Li M. et al., 2022a]). […] After removing excess ASP^+ by rapid washing three times, ASP^+ binding was determined by confocal imaging analysis.
(§4) Images were analyzed using Zen Blue software. […]

[2] = biological target: T2, hSERT Y95F (S1 site mutant) (Homo sapiens, UniProt P31645, Y95F); experiment: APP+ transport in HeLa cells expressing hSERT mutant Y95F
T2 construct: expressed in transfected cells; host or cells: HeLa (ATCC CCL-2), transient, pcDNA3.1
Description: as §1, §2, §3, §4

[3] = biological target: T3, hDAT R544G (S2 site mutant) (Homo sapiens, UniProt Q01959, R544G); experiment: APP+ transport in HeLa cells expressing hDAT mutant R544G
T3 construct: expressed in transfected cells; host or cells: HeLa
T3 sequence (Q01959 whole entry R544G): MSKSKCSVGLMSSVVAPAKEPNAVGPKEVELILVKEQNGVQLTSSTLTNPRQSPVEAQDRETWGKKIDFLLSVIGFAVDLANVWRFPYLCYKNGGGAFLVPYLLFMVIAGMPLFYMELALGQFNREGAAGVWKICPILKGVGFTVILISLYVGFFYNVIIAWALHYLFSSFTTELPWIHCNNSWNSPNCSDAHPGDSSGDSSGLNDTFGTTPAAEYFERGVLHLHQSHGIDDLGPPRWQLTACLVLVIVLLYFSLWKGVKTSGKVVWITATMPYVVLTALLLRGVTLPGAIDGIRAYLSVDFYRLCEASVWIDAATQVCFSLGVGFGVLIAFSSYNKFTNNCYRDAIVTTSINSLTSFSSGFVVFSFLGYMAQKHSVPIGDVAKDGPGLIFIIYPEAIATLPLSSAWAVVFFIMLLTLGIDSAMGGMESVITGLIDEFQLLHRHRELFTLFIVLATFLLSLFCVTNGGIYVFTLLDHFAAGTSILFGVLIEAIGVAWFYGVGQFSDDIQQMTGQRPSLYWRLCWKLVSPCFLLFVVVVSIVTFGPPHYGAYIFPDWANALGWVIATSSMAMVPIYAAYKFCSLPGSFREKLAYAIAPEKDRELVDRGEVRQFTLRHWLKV
Description: as §1, §2, §3, §4

[4] = biological target: T4, hDAT T566A (S2 site mutant) (Homo sapiens, UniProt Q01959, T566A); experiment: APP+ transport in HeLa cells expressing hDAT mutant T566A
T4 construct: expressed in transfected cells; host or cells: HeLa
T4 sequence (Q01959 whole entry T566A): as the sequence (Q01959 whole entry R544G) above, with G544R, T566A counted along it
Description: as §1, §2, §3, §4

[5] = biological target: T5, hDAT S422T (S1 site mutant) (Homo sapiens, UniProt Q01959, S422T); experiment: APP+ transport in HeLa cells expressing hDAT mutant S422T
T5 construct: expressed in transfected cells; host or cells: HeLa
T5 sequence (Q01959 whole entry S422T): as the sequence (Q01959 whole entry R544G) above, with S422T, G544R counted along it
Description: as §1, §2, §3, §4

[6] = biological target: T6, hNET K541G (S2 site mutant) (Homo sapiens, UniProt P23975, K541G); experiment: APP+ transport in HeLa cells expressing hNET mutant K541G; conditions: intact HeLa cells, read-out: SAG IC50
T6 construct: expressed in transfected cells; host or cells: HeLa
T6 sequence (P23975 whole entry K541G): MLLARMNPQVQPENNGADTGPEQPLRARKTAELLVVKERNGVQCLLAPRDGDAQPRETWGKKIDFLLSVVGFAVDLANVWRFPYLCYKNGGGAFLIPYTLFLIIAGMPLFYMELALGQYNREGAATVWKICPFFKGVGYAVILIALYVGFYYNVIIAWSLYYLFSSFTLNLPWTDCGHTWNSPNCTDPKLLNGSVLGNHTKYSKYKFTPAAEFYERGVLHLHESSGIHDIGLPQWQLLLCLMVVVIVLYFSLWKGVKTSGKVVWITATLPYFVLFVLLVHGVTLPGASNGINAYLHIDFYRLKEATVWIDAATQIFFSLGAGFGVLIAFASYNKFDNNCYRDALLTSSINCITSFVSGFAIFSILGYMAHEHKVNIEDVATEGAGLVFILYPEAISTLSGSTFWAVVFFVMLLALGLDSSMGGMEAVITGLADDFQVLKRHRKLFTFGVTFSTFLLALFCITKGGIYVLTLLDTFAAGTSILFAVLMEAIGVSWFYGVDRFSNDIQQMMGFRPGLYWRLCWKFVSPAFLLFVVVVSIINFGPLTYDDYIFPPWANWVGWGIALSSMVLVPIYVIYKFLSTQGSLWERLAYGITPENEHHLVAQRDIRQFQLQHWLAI
Description: as §1, §2, §3, §4

[7] = biological target: T7, hNET L563A (S2 site mutant) (Homo sapiens, UniProt P23975, L563A); experiment: APP+ transport in HeLa cells expressing hNET mutant L563A; conditions: intact HeLa cells, read-out: SAG IC50
T7 construct: expressed in transfected cells; host or cells: HeLa
T7 sequence (P23975 whole entry L563A): as the sequence (P23975 whole entry K541G) above, with G541K, L563A counted along it
Description: as §1, §2, §3, §4

## (-)-Syringaresinol-4-O-β-D-apiofuranosyl-(1→2)-β-D-glucopyranoside [SAG]
[1]
  IC50: 111 ± 2 µM
[2]; hSERT Tyr95 to Phe (S1) vs WT-hSERT, APP+ transport
  Effect of mutation on SAG inhibition potency: little effect
[2]; hSERT Y95F (S1), 2 μM APP+ 5 min, intact HeLa cells, read-out: SAG IC50 for transport
  IC50: 4.45 ± 0.17 µM
[3]; hDAT R544G vs WT-hDAT
  Increase in SAG IC50 compared with WT: less than 10 fold
[3]; hDAT R544G, intact HeLa cells, read-out: SAG IC50
  IC50: 150 ± 4 µM
[4]; hDAT T566A vs WT-hDAT
  Increase in SAG IC50 compared with WT: less than 10 fold
[4]; hDAT T566A, intact HeLa cells, read-out: SAG IC50
  IC50: 136 ± 6 µM
[5]; hDAT S1 residue Ser422 replaced
  Effect of mutation on SAG inhibition potency: little effect
[5]; hDAT S422T (S1), intact HeLa cells, read-out: SAG IC50
  IC50: 24.5 ± 1.4 µM
[6]
  IC50: 79.8 ± 3.3 µM
[7]
  IC50: 304 ± 12 µM
